≈ marks a conversion by molar mass, not a printed value. One block for each compound: values may come before it.
Experiments:
Test in all cases: ≥ marks a high value that may be exact or a test limit, other limits are often not marked, values filed in µg/mL are converted to µM
[1] = test system: Pseudomonas aeruginosa Ps4
[2] = test system: Salmonella enterica serovar Typhimurium
[3] = test system: Staphylococcus epidermidis
[4] = test system: Pseudomonas aeruginosa H103
[5] = test system: Candida albicans
[6] = test system: Enterococcus faecalis ATCC 29212
[7] = test system: Escherichia coli UB1005
[8] = test system: Staphylococcus aureus ATCC 25923
[9] = test system: Candida albicans C627
[10] = test system: Pseudomonas aeruginosa LES400
[11] = test system: Pseudomonas aeruginosa 213
[12] = test system: Escherichia coli ESBL 63103
[13] = test system: Staphylococcus aureus C623
[14] = test system: Enterococcus faecium mic80
[15] = test system: Pseudomonas corrugata DSM 7228
[16] = test system: Pectobacterium carotovorum subsp. carotovorum DSM 30168
[17] = test system: Pseudomonas syringae pv. syringae DSM 10604
[18] = test system: Pseudomonas syringae pv. tomato DC3000
[19] = test system: Xanthomonas vesicatoria DSM 50861
[20] = test system: Clavibacter michiganensis subsp. michiganensis DSM 46294
[21] = test system: Escherichia coli SBS 363
[22] = test system: Candida albicans MDM8
[23] = test system: Micrococcus luteus A270
[24] = test system: Streptococcus sanguinis ATCC 49295
[25] = test system: Streptococcus mutans GS-5
[26] = test system: Streptococcus gordonii ATCC 10558
[27] = test system: Streptococcus mutans UA159

SMILES: CC[C@H](C)[C@H](NC(=O)[C@H](CC(N)=O)NC(=O)[C@H](CCCN=C(N)N)NC(=O)[C@@H]1CCCN1C(=O)[C@H](Cc1c[nH]c2ccccc12)NC(=O)[C@@H](N)Cc1ccccc1)C(=O)N[C@@H](CCCN=C(N)N)C(=O)N[C@@H](CCCCN)C(=O)N[C@H](C(=O)N[C@@H](CCCN=C(N)N)C(N)=O)C(C)C [FWPRNIRKVR]
MIC [1]: ≥ 182 µM

SMILES: CC[C@H](C)[C@H](N)C(=O)N[C@@H](CCCN=C(N)N)C(=O)N[C@@H](CCSC)C(=O)N[C@@H](CCCN=C(N)N)C(=O)N[C@H](C(=O)N[C@@H](CCCN=C(N)N)C(=O)N[C@H](C(=O)N[C@@H](CC(C)C)C(=O)N[C@@H](CC(C)C)C(=O)O)C(C)C)[C@@H](C)CC [IRMRIRVLL]
MIC [2]: 4 µM (≈ 4.68 µg/mL)
MIC [3]: 2 µM (≈ 2.34 µg/mL)
MIC [4]: 16 µM (≈ 18.7 µg/mL)
MIC [5]: 16 µM (≈ 18.7 µg/mL)
MIC [6]: 16 µM (≈ 18.7 µg/mL)
MIC [7]: 2 µM (≈ 2.34 µg/mL)
MIC [8]: 4 µM (≈ 4.68 µg/mL)

SMILES: CC[C@H](C)[C@H](NC(=O)[C@H](CC(C)C)NC(=O)[C@H](CCSC)NC(=O)[C@H](CCCN=C(N)N)NC(=O)[C@H](Cc1c[nH]c2ccccc12)NC(=O)[C@H](Cc1c[nH]c2ccccc12)NC(=O)[C@H](CCCCN)NC(=O)[C@H](Cc1ccccc1)NC(=O)[C@@H](N)CCCCN)C(=O)O [KFKWWRMLI]
MIC [2]: 2.3 µM (≈ 3.01 µg/mL)
MIC [3]: 0.6 µM (≈ 0.785 µg/mL)
MIC [4]: 4.6 µM (≈ 6.02 µg/mL)
MIC [5]: 4.6 µM (≈ 6.02 µg/mL)
MIC [6]: 2.3 µM (≈ 3.01 µg/mL)
MIC [7]: 0.6 µM (≈ 0.785 µg/mL)
MIC [8]: 1.2 µM (≈ 1.57 µg/mL)

SMILES: NCCCC[C@H](NC(=O)[C@@H](N)CCCCN)C(=O)N[C@@H](CCCN=C(N)N)C(=O)N[C@@H](Cc1c[nH]c2ccccc12)C(=O)N[C@@H](Cc1c[nH]c2ccccc12)C(=O)N[C@@H](Cc1c[nH]c2ccccc12)C(=O)N[C@@H](Cc1c[nH]c2ccccc12)C(=O)N[C@@H](Cc1c[nH]c2ccccc12)C(=O)N[C@@H](CCCN=C(N)N)C(=O)O [KKRWWWWWR]
MIC [4]: 2.64 µM (≈ 4 µg/mL)
MIC [9]: 2.64 µM (≈ 4 µg/mL)
MIC [10]: 21.1 µM (≈ 32 µg/mL)
MIC [11]: 21.1 µM (≈ 32 µg/mL)
MIC [12]: 5.27 µM (≈ 8 µg/mL)
MIC [13]: 1.32 µM (≈ 2 µg/mL)
MIC [14]: 5.27 µM (≈ 8 µg/mL)
MIC [8]: 2.64 µM (≈ 4 µg/mL)

SMILES: NCCCC[C@H](NC(=O)[C@H](Cc1c[nH]c2ccccc12)NC(=O)[C@@H](N)CCCCN)C(=O)N[C@@H](CCCN=C(N)N)C(=O)N[C@@H](Cc1c[nH]c2ccccc12)C(=O)N[C@@H](Cc1c[nH]c2ccccc12)C(=O)N[C@@H](Cc1c[nH]c2ccccc12)C(=O)N[C@@H](Cc1ccccc1)C(=O)N[C@@H](CCCN=C(N)N)C(=O)O [KWKRWWWFR]
MIC [4]: 21.6 µM (≈ 32 µg/mL)
MIC [9]: 21.6 µM (≈ 32 µg/mL)
MIC [10]: ≥ 43.3 µM
MIC [11]: ≥ 86.6 µM
MIC [12]: 10.8 µM (≈ 16 µg/mL)
MIC [13]: 10.8 µM (≈ 16 µg/mL)
MIC [14]: 21.6 µM (≈ 32 µg/mL)
MIC [8]: 21.6 µM (≈ 32 µg/mL)

SMILES: CC[C@H](C)[C@H](NC(=O)[C@H](CC(C)C)NC(=O)[C@H](CCCN=C(N)N)NC(=O)[C@H](CCCCN)NC(=O)[C@@H](NC(=O)[C@H](CC(C)C)NC(=O)[C@H](CCCCN)NC(=O)[C@H](CCCCN)NC(=O)[C@H](CCCN=C(N)N)NC(=O)[C@H](CCCCN)NC(=O)[C@H](CCCCN)NC(=O)[C@@H](N)CCCN=C(N)N)[C@@H](C)CC)C(N)=O [RKKRKKLIKRLI]
MIC [15]: 0.316 µM (≈ 0.5 µg/mL)
MIC [16]: 6.33 µM (≈ 9.99 µg/mL)
MIC [17]: 0.0633 µM (≈ 0.1 µg/mL)
MIC [18]: 6.33 µM (≈ 9.99 µg/mL)
MIC [19]: 3.16 µM (≈ 5 µg/mL)
MIC [20]: 3.16 µM (≈ 5 µg/mL)

SMILES: CC[C@H](C)[C@H](NC(=O)[C@H](CC(C)C)NC(=O)[C@H](CO)NC(=O)[C@H](CC(C)C)NC(=O)[C@H](CC(C)C)NC(=O)[C@@H](N)CO)C(=O)N[C@@H](CCCN=C(N)N)C(=O)N[C@@H](CCCCN)C(=O)N[C@@H](Cc1ccccc1)C(=O)N[C@@H](Cc1ccccc1)C(=O)N[C@H](C(N)=O)[C@@H](C)O [SLLSLIRKFFT]
MIC [21]: 1.56 µM (≈ 2.06 µg/mL)
MIC [22]: 1.56 µM (≈ 2.06 µg/mL)
MIC [23]: 0.39 µM (≈ 0.516 µg/mL)

Now from value to compound:

MIC [1]: ≥ 155 µM
SMILES: CC[C@H](C)[C@H](NC(=O)[C@H](CC(N)=O)NC(=O)[C@H](CCCN=C(N)N)NC(=O)[C@H](CCC(N)=O)NC(=O)[C@H](Cc1c[nH]c2ccccc12)NC(=O)[C@H](Cc1ccccc1)NC(=O)[C@@H](N)CS)C(=O)N[C@@H](CCCN=C(N)N)C(=O)N[C@@H](CCCCN)C(=O)N[C@H](C(=O)N[C@@H](CCCN=C(N)N)C(=O)N[C@@H](CS)C(N)=O)C(C)C [CFWQRNIRKVRC]

MIC [15]: 0.684 µM (≈ 0.999 µg/mL)
MIC [16]: 6.84 µM (≈ 9.99 µg/mL)
MIC [17]: 0.171 µM (≈ 0.25 µg/mL)
MIC [18]: 0.171 µM (≈ 0.25 µg/mL)
MIC [19]: 1.71 µM (≈ 2.5 µg/mL)
MIC [20]: 1.71 µM (≈ 2.5 µg/mL)
SMILES: CC(C)C[C@H](NC(=O)[C@H](C)NC(=O)[C@H](CCCCN)NC(=O)[C@H](CCCCN)NC(=O)[C@H](C)NC(=O)[C@H](Cc1ccccc1)NC(=O)[C@H](CCCN=C(N)N)NC(=O)[C@@H](N)CC(C)C)C(=O)N[C@@H](CCCCN)C(=O)N[C@@H](CCCCN)C(=O)N[C@@H](CC(C)C)C(=O)N[C@@H](Cc1ccccc1)C(N)=O [LRFAKKALKKLF]

MIC [4]: ≥ 89.3 µM
MIC [9]: ≥ 89.3 µM
MIC [10]: ≥ 89.3 µM
MIC [11]: ≥ 89.3 µM
MIC [12]: ≥ 44.6 µM
MIC [13]: 22.3 µM (≈ 32 µg/mL)
MIC [14]: ≥ 44.6 µM
MIC [8]: 44.6 µM (≈ 64 µg/mL)
SMILES: CC[C@H](C)[C@H](NC(=O)[C@@H](N)CCCN=C(N)N)C(=O)N[C@@H](Cc1c[nH]c2ccccc12)C(=O)N[C@@H](CCCCN)C(=O)N[C@@H](CCCN=C(N)N)C(=O)N[C@@H](Cc1c[nH]c2ccccc12)C(=O)N[C@@H](Cc1c[nH]c2ccccc12)C(=O)N[C@@H](Cc1ccccc1)C(=O)N[C@@H](CCCN=C(N)N)C(=O)O [RIWKRWWFR]

MIC [24]: ≥ 33.1 µM
MIC [25]: 4.43 µM (≈ 13.3 µg/mL)
MIC [26]: 16.6 µM (≈ 49.8 µg/mL)
MIC [27]: 3.55 µM (≈ 10.7 µg/mL)
SMILES: CC(C)C[C@H](NC(=O)[C@H](CCCN=C(N)N)NC(=O)[C@H](Cc1ccccc1)NC(=O)[C@H](Cc1ccccc1)NC(=O)[C@@H](NC(=O)[C@@H](N)CO)[C@@H](C)O)C(=O)N[C@@H](Cc1ccccc1)C(=O)N[C@@H](CC(N)=O)C(=O)N[C@@H](CCCN=C(N)N)C(=O)N[C@@H](CO)C(=O)N[C@@H](Cc1ccccc1)C(=O)N[C@H](C(=O)N[C@@H](CCC(N)=O)C(=O)NCC(=O)N[C@@H](CCCN=C(N)N)C(=O)N[C@@H](CCCN=C(N)N)C(=O)N[C@@H](CCCN=C(N)N)C(=O)N[C@@H](CCCN=C(N)N)C(=O)N[C@@H](CO)C(=O)N[C@H](C(=O)N[C@@H](CCC(N)=O)C(=O)N[C@@H](Cc1c[nH]c2ccccc12)C(=O)N[C@@H](CS)C(=O)N[C@@H](C)C(=O)O)C(C)C)[C@@H](C)O [STFFRLFNRSFTQGRRRRSVQWCA]

MIC [24]: ≥ 155 µM
MIC [25]: ≥ 155 µM
MIC [26]: ≥ 155 µM
MIC [27]: ≥ 155 µM
SMILES: CC(C)C[C@H](NC(=O)[C@H](CCCN=C(N)N)NC(=O)[C@H](Cc1ccccc1)NC(=O)[C@H](Cc1ccccc1)NC(=O)[C@@H](NC(=O)[C@@H](N)CO)[C@@H](C)O)C(=O)N[C@@H](Cc1ccccc1)C(=O)N[C@@H](CC(N)=O)C(=O)N[C@@H](CCCN=C(N)N)C(=O)N[C@@H](CO)C(=O)N[C@@H](Cc1ccccc1)C(=O)N[C@H](C(=O)N[C@@H](CCC(N)=O)C(=O)O)[C@@H](C)O [STFFRLFNRSFTQ]

MIC [24]: ≥ 40.5 µM
MIC [25]: 5.06 µM (≈ 12.4 µg/mL)
MIC [26]: 20.3 µM (≈ 49.8 µg/mL)
MIC [27]: 4.34 µM (≈ 10.7 µg/mL)
SMILES: CC(C)C[C@H](NC(=O)[C@H](CCCN=C(N)N)NC(=O)[C@H](Cc1ccccc1)NC(=O)[C@H](Cc1ccccc1)NC(=O)[C@@H](N)[C@@H](C)O)C(=O)N[C@@H](Cc1ccccc1)C(=O)N[C@@H](CC(N)=O)C(=O)N[C@@H](CCCN=C(N)N)C(=O)NCC(=O)N[C@@H](CCCN=C(N)N)C(=O)N[C@@H](CCCN=C(N)N)C(=O)N[C@@H](CCCN=C(N)N)C(=O)N[C@@H](CCCN=C(N)N)C(=O)N[C@@H](CO)C(=O)N[C@H](C(=O)N[C@@H](CCC(N)=O)C(=O)N[C@@H](Cc1c[nH]c2ccccc12)C(=O)N[C@@H](CS)C(=O)N[C@@H](C)C(=O)O)C(C)C [TFFRLFNRGRRRRSVQWCA]

From DBAASP
